Drawing on patent US20250281424A1 (New York Blood Center, Inc, priority 2020, published 2025), this text covers inhibition and IC50 for 21 compounds.

By IC50 is commonly meant the point on the concentration scale where inhibition reaches its midpoint.

The experiment addresses T1, human PF4 (Homo sapiens, UniProt P02776).
T1 construct: PF4 is a 70 amino acid, lysine-rich 7.8 kDa platelet-specific protein; made in house; host or cells: Escherichia coli BL21DE3 pLysS (pT7-7) and/or Drosophila S2 cells
T1 sequence (P02776 32-101): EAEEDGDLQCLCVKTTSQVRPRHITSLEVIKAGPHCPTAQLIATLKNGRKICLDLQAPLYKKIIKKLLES
As to the kind of experiment: Inhibition of PF4 tetramer formation (BS3 cross-linking, SDS-PAGE). The following applies: for inhibition at 5 µM: 5 μM inhibitor; for inhibition at 5 µM / inhibition at 10 µM / inhibition at 1 µM / inhibition at 3 µM: read-out: % inhibition of PF4 tetramer formation at single concentration of inhibitor; for inhibition at 10 µM: 10 μM inhibitor (column A); for IC50: read-out: IC50 of PF4 tetramer formation inhibition; for inhibition at 1 µM: 1 μM inhibitor; for inhibition at 3 µM: 3 μM inhibitor (column A). The format is biochemical. The method in brief:
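Monomer, dimer, trimer and tetramer fractions were quantified by densitometry after reducing 12% SDS-PAGE of BS3-cross-linked (0.2 mM, 30 min, room temperature) PF4. Before cross-linking, 10 μg/ml E. coli-expressed human WT PF4 in PBS was exposed to compound for 15 min at 37° C or 60 min at room temperature; controls lacked compound.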

With `C[C@H](NC(=O)OC(C)(C)C)C(=O)C1C(=O)c2ccc(C(=O)c3ccc4c(c3)C(=O)C(C(=O)[C@H](C)NC(=O)OC(C)(C)C)C4=O)cc2C1=O` (stereo partly drawn) [Example 179, tert-butyl N-[(2S)-1-(5-{2-[(2S)-2-{[(tert-butoxy)carbonyl]amino}propanoyl]-1,3-dioxo-2,3-dihydro-1H-indene-5-carbonyl}-1,3-dioxo-2,3-dihydro-1H-inden-2-yl)-1-oxopropan-2-yl]carbamate], the inhibition at 5 µM is 81%, the inhibition at 10 µM came to 92% and the IC50 was around 6 µM.

For the compound `CC(C)(C)OC(=O)N[C@@H](C(=O)C1C(=O)c2ccc(S(=O)(=O)c3ccc4c(c3)C(=O)C(C(=O)[C@H](NC(=O)OC(C)(C)C)c3ccccc3)C4=O)cc2C1=O)c1ccccc1` (some centres unmarked) [Example 182], the inhibition at 5 µM was 74%, the inhibition at 10 µM came out at 88% and the IC50 is 5.7 µM.

As to `CCOC(=O)CCNC(=O)C1C(=O)c2ccc(C(=O)c3ccc4c(c3)C(=O)C(C(=O)NCCC(=O)OCC)C4=O)cc2C1=O` (centres unmarked) [Example 27, 5,5′-carbonylbis(3-[(1,3-dioxo-indane-2-carbonyl)-amino]-propionic acid ethyl ester)], the IC50 stood at 10.8 µM.

Take `CC(=O)NCC(=O)C1C(=O)c2ccc(C(=O)c3ccc4c(c3)C(=O)C(C(=O)CNC(C)=O)C4=O)cc2C1=O` (centres unmarked) [Example 181, N-(2-{5-[2-(2-acetamidoacetyl)-1,3-dioxo-2,3-dihydro-1H-indene-5-carbonyl]-1,3-dioxo-2,3-dihydro-1H-inden-2-yl}-2-oxoethyl)acetamide]: the inhibition at 5 µM came out at 86%, the inhibition at 10 µM worked out at 96% and the IC50 turned out to be 1.6 µM.

As for `CC(C)C[C@@H](N)C(=O)C1C(=O)c2ccc(C(=O)c3ccc4c(c3)C(=O)C(C(=O)[C@H](N)CC(C)C)C4=O)cc2C1=O` (stereo partly drawn) [Example 354, 2-[(2R)-2-amino-4-methylpentanoyl]-5-{2-[(2R)-2-amino-4-methylpentanoyl]-1,3-dioxo-2,3-dihydro-1H-indene-5-carbonyl}-2,3-dihydro-1H-indene-1,3-dione], the inhibition at 1 µM was 26% and the inhibition at 3 µM was 32%.

As to `COCCCNC(=O)C1C(=O)c2ccc(C(=O)c3ccc4c(c3)C(=O)C(C(=O)NCCCOC)C4=O)cc2C1=O` (centres unmarked) [Example 88, N-(3-methoxypropyl)-5-{2-[(3-methoxypropyl)carbamoyl]-1,3-dioxo-2,3-dihydro-1H-indene-5-carbonyl}-1,3-dioxo-2,3-dihydro-1H-indene-2-carboxamide], the IC50 worked out at 21 µM.

For `O=C(NCc1ccccc1)C1C(=O)c2ccc(S(=O)(=O)c3ccc4c(c3)C(=O)C(C(=O)NCc3ccccc3)C4=O)cc2C1=O` (centres unmarked) [Example 93, N-benzyl-5-{[2-(benzylcarbamoyl)-1,3-dioxo-2,3-dihydro-1H-inden-5-yl]sulfonyl}-1,3-dioxo-2,3-dihydro-1H-indene-2-carboxamide], the inhibition at 5 µM came to 70% and the inhibition at 10 µM worked out at 75%.

With `CCCCc1ccc(NC(=O)C2C(=O)c3ccc(S(=O)(=O)c4ccc5c(c4)C(=O)C(C(=O)Nc4ccc(CCCC)cc4)C5=O)cc3C2=O)cc1` (centres unmarked) [Example 102], the inhibition at 5 µM stood at 78%, the inhibition at 10 µM came out at 100% and the IC50 was 2.9 µM.

As for `CC(C)(C)OC(=O)NCCCC(=O)C1C(=O)c2ccc(Oc3ccc4c(c3)C(=O)C(C(=O)CCCNC(=O)OC(C)(C)C)C4=O)cc2C1=O` (centres unmarked) [Example 385, tert-butyl N-[4-(5-{[2-(4-{[(tert-butoxy)carbonyl]amino}butanoyl)-1,3-dioxo-2,3-dihydro-1H-inden-5-yl]oxy}-1,3-dioxo-2,3-dihydro-1H-inden-2-yl)-4-oxobutyl]carbamate], the inhibition at 1 µM came out at 29% and the inhibition at 3 µM worked out at 59%.

Regarding `O=C(c1ccc2c(c1)C(=O)C(C(=O)NC1CCCC1)C2=O)c1ccc2c(c1)C(=O)C(C(=O)NC1CCCC1)C2=O` (centres unmarked) [Example 71, 5,5′-carbonylbis(n-cyclopentyl-1,3-dioxo-2,3-dihydro-1h-indene-2-carboxamide)], the inhibition at 5 µM amounted to 2%, the inhibition at 10 µM was determined as 85% and the IC50 worked out at 1 µM.

As for `CC(C)(C)OC(=O)NCC(=O)C1C(=O)c2ccc(Oc3ccc4c(c3)C(=O)C(C(=O)CNC(=O)OC(C)(C)C)C4=O)cc2C1=O` (centres unmarked) [Example 272, tert-butyl N-[2-(5-{[2-(2-{[(tert-butoxy)carbonyl]amino}acetyl)-1,3-dioxo-2,3-dihydro-1H-inden-5-yl]oxy}-1,3-dioxo-2,3-dihydro-1H-inden-2-yl)-2-oxoethyl]carbamate], the inhibition at 1 µM was 26% and the inhibition at 3 µM stood at 56%.

As to `CS(=O)(=O)N1CCC(NC(=O)C2C(=O)c3ccc(S(=O)(=O)c4ccc5c(c4)C(=O)C(C(=O)NC4CCN(S(C)(=O)=O)CC4)C5=O)cc3C2=O)CC1` (centres unmarked) [Example 364, N-(1-methanesulfonylpiperidin-4-yl)-5-({2-[(1-methanesulfonylpiperidin-4-yl)carbamoyl]-1,3-dioxo-2,3-dihydro-1H-inden-5-yl}sulfonyl)-1,3-dioxo-2,3-dihydro-1H-indene-2-carboxamide], the inhibition at 1 µM stood at 13%, the inhibition at 3 µM stood at 74% and the IC50 was found to be 1.35 µM.

`CCOCC(=O)C1C(=O)c2ccc(Oc3ccc4c(c3)C(=O)C(C(=O)COCC)C4=O)cc2C1=O` (centres unmarked) [Example 247, 2-(2-ethoxyacetyl)-5-{[2-(2-ethoxyacetyl)-1,3-dioxo-2,3-dihydro-1H-inden-5-yl]oxy}-2,3-dihydro-1H-indene-1,3-dione]: the inhibition at 1 µM is 19%, the inhibition at 3 µM is 27% and the IC50 came out at 3 µM.

In the case of `CC(C)C[C@@H](N)C(=O)C1C(=O)c2ccc(S(=O)(=O)c3ccc4c(c3)C(=O)C(C(=O)[C@H](N)CC(C)C)C4=O)cc2C1=O` (stereo partly drawn) [Example 355, 2-[(2R)-2-amino-4-methylpentanoyl]-5-({2-[(2R)-2-amino-4-methylpentanoyl]-1,3-dioxo-2,3-dihydro-1H-inden-5-yl}sulfonyl)-2,3-dihydro-1H-indene-1,3-dione], the inhibition at 1 µM is 23% and the inhibition at 3 µM was 61%.

Consider `O=C(c1ccc2c(c1)C(=O)C(C(=O)NCC1CCOC1)C2=O)c1ccc2c(c1)C(=O)C(C(=O)NCC1CCOC1)C2=O` (centres unmarked) [Example 363, 5-(1,3-dioxo-2-{[(oxolan-3-yl)methyl]carbamoyl}-2,3-dihydro-1H-indene-5-carbonyl)-1,3-dioxo-N-[(oxolan-3-yl)methyl]-2,3-dihydro-1H-indene-2-carboxamide], for which the inhibition at 1 µM amounted to 29%, the inhibition at 3 µM is 63% and the IC50 was 3.96 µM.

As for `COC(=O)c1ccccc1NC(=O)C1C(=O)c2ccc(C(=O)c3ccc4c(c3)C(=O)C(C(=O)Nc3ccccc3C(=O)OC)C4=O)cc2C1=O` (centres unmarked) [Example 99, methyl 2-[5-(2-{[2-(methoxycarbonyl)phenyl]carbamoyl}-1,3-dioxo-2,3-dihydro-1H-indene-5-carbonyl)-1,3-dioxo-2,3-dihydro-1H-indene-2-amido]benzoate], the inhibition at 5 µM turned out to be 44%, the inhibition at 10 µM turned out to be 100% and the IC50 amounted to 13 µM.

Take `CC(C)(C)OC(=O)NCCCC(=O)C1C(=O)c2ccc(S(=O)(=O)c3ccc4c(c3)C(=O)C(C(=O)CCCNC(=O)OC(C)(C)C)C4=O)cc2C1=O` (centres unmarked) [Example 387, tert-butyl N-[4-(5-{[2-(4-{[(tert-butoxy)carbonyl]amino}butanoyl)-1,3-dioxo-2,3-dihydro-1H-inden-5-yl]sulfonyl}-1,3-dioxo-2,3-dihydro-1H-inden-2-yl)-4-oxobutyl]carbamate]: the inhibition at 1 µM was 16% and the inhibition at 3 µM is 52%.

For the compound `O=C(O)CCC(=O)C1C(=O)c2ccc(Oc3ccc4c(c3)C(=O)C(C(=O)CCC(=O)O)C4=O)cc2C1=O` (centres unmarked) [Example 245, 4-(5-{[2-(3-carboxypropanoyl)-1,3-dioxo-2,3-dihydro-1H-inden-5-yl]oxy}-1,3-dioxo-2,3-dihydro-1H-inden-2-yl)-4-oxobutanoic acid], the inhibition at 1 µM stood at 27% and the inhibition at 3 µM is 47%.

Consider `O=C1c2ccc(Oc3ccc4c(c3)C(=O)C(C(=O)C3CCCS3(=O)=O)C4=O)cc2C(=O)C1C(=O)C1CCCS1(=O)=O` (centres unmarked) [Example 370, 2-(5-{[2-(1,1-dioxo-1λ^6-thiolane-2-carbonyl)-1,3-dioxo-2,3-dihydro-1H-inden-5-yl]oxy}-1,3-dioxo-2,3-dihydro-1H-indene-2-carbonyl)-1λ^6-thiolane-1,1-dione], for which the inhibition at 1 µM is 3% and the inhibition at 3 µM turned out to be 6%.

In the case of `O=C(NC1CCS(=O)(=O)C1)C1C(=O)c2ccc(Oc3ccc4c(c3)C(=O)C(C(=O)NC3CCS(=O)(=O)C3)C4=O)cc2C1=O` (centres unmarked) [Example 366, N-(1,1-dioxo-1λ^6-thiolan-3-yl)-5-({2-[(1,1-dioxo-1λ^6-thiolan-3-yl)carbamoyl]-1,3-dioxo-2,3-dihydro-1H-inden-5-yl}oxy)-1,3-dioxo-2,3-dihydro-1H-indene-2-carboxamide], the inhibition at 1 µM was 41%, the inhibition at 3 µM was 60% and the IC50 came out at 0.55 µM.

As for `CO[C@@H](C)C(=O)C1C(=O)c2ccc(C(=O)c3ccc4c(c3)C(=O)C(C(=O)[C@H](C)OC)C4=O)cc2C1=O` (stereo partly drawn) [Example 236, 2-[(2S)-2-methoxypropanoyl]-5-{2-[(2S)-2-methoxypropanoyl]-1,3-dioxo-2,3-dihydro-1H-indene-5-carbonyl}-2,3-dihydro-1H-indene-1,3-dione], the inhibition at 1 µM stood at 20% and the inhibition at 3 µM stood at 25%.
